Laboratory results reported in article PMC6368337, “GluClR-mediated inhibitory postsynaptic currents reveal targets for ivermectin and potential mechanisms of ivermectin resistance” (PLoS Pathogens, 2019).

Experiments:
αβ (1:50) GluClRs = αβ (1:50) GluClRs (Haemonchus contortus, UniProt O46124+P91730); test: Two-electrode voltage clamp in oocytes, αβ (1:50) GluClRs; assay type: cell-based, H. contortus
Protocol: (§1) cDNAs encoding the α (avr-14b) (pcDNA 3.1+) or β (pUNIV) GluClR subunits of H. contortus were nuclear injected into oocytes (NASCO, WI USA) or transfected into HEK293AD cells (CellBank Australia) using a calcium phosphate-DNA co-precipitate method. Synapse formation between neurons and HEK293 cells was promoted by co-transfecting neuroligin 2A or 1B and the cDNA encoding CD4 surface antigen was also added to the transfection mixture so as to identify transfected cells. The oocytes and HEK cells were used for experiments 2–3 days after the introduction of the cDNAs. All experiments were done at room temperature (22 ± 1°C).
Xenopus laevis oocytes were harvested by surgical incision. The oocytes were then defolliculated with 1.5 mg/ml collagenase for 2 hours. Free oocytes were rinsed with calcium-free OR-2 solution containing (in mM) 82.5 NaCl, 2 KCl, 1 MgCl2, 5 HEPES, pH 7.4 and mature stage V or VI oocytes were isolated for experiments. The DNAs coding for α and β subunits were nuclear injected into the oocytes using a Nanoliter 2000 microinjector (WPI Inc) at a ratio of (α:β), 1:0, 0:1, 1:1 and 1:50. The total amount of injected DNA in all combinations was 400 ng ml^−1, including the 1:50 (α:β) combination (8 ng of DNA encoding the α and 392 ng of DNA encoding β subunits). Injected oocytes were incubated in ND96 storage solution (in mM) 96 NaCl, 2 KCl, 1 MgCl2.6H2O, 1.8 CaCl2, 5 HEPES, 50 μg ml^−1 gentamicin, 2.5 sodium pyruvate, 0.5 theophylline, pH 7.4 at 16°C for 2–3 days before experiment.
For the two-electrode voltage clamp recordings, each oocyte was secured in a cell bath that was continually perfused with ND96 recording solution (ND96 storage solution without pyruvate, theophylline and gentamicin). […] The two microelectrodes contained 3 M KCl and had resistances of 0.2–2 MΩ. Recordings were done using Clampex 10.2 software (Molecular Devices) at a clamped voltage of −40 mV. Currents were low-pass filtered at 200 Hz, sampled at 2 kHz using a Gene Clamp 500B amplifier and digitised by a Digidata 1440A interface. The IVM (IVM B1a) concentration-response experiments were standardised by using an application protocol that consisted of applying increasing concentrations of IVM for, respectively, 3 min, 3 min, 3 min, 2 min, 1 min, 1 min and 0.5 min.
Group data were analysed in SigmaPlot 13.0 using one-way ANOVAs, where p < 0.05 was taken as the significance threshold and expressed as mean ± SEM. Tests for normally distributed data are built into the SigmaPlot software. Confocal images were captured and analysed with Zen 2012 SP2 (Zeiss) software. Oocyte concentration-response data were fit to a Hill equation to obtain an EC50 and Hill co-efficient for each oocyte recording. These parameters were then averaged across multiple oocyte experiments of the same type. Single channel recordings were analysed in QuB software. […] The selected critical times eliminated periods of receptor desensitisation while retaining singe receptor active periods. Mean active period duration and intra-activation open probability was estimated from each patch. Group means were obtained by averaging across multiple patches for each recording condition.

[1] = tested on: Untransfected HEK293 cells; test: Fluorescence recovery after photobleaching (FRAP), lateral membrane diffusion; settings: in cell membrane
Protocol: The second experiment was aimed at determining the lateral membrane diffusion properties of IVM using the fluorescence recovery after photobleaching (FRAP) technique. After a 30-min equilibration time, 5 cells were monitored for fluorescence recovery within a bleached circular patch of membrane of 3.7 μm diameter (Fig 8C). Any bleaching and recovery of the surrounding area of the cell was measured, using a similar circular patch and used to correct the recovery rate of the membrane delineated by the bleached area. We also noted that the recovery reached 98 ± 2% of control. The time constant (τ) for recovery of 1.3 minutes was used to calculate the diffusion coefficient (D), using the radius (r) of the bleached patch, according to D = r^2/4τ. The calculated value of D was 1.1 x 10^−2 μm^2s^−1. Over the course of 1 s, the IVM-bdpy probe would traverse 0.2 μm along the membrane surface (lateral diffusion rate of 0.2 μms^−1). […] We infer that this slow lateral diffusion rate coupled to membrane partitioning are the major contributors to local increases of IVM around its target binding sites and the slow quasi-irreversible actions of IVM at GluClRs.
Membrane partitioning and FRAP experiments were performed on an LSM 710 inverted 2-photon confocal microscope equipped with a 40X water immersion objective lens (1.2 NA/280 μM WD/0.208 μM/pixel and a GFP/Alexa 488 filter set. Untransfected HEK293 cells at a confluency of 50–75% were plated onto 35-mm glass bottom dishes one day prior to experiments. The IVM-bdpy fluorophore was dissolved in 100% DMSO and stored at ‐20°C at a concentration of 24 mM.
A Mai Tai eHP 2-photon laser/760-1040 nm was used as an excitation source (power at 920 nm) for the FRAP experiments. The laser and bleaching power were set to 7% and 75% respectively. Membrane partitioning images were taken for 35 min at 0.5 Hz after replacing the cell medium (extracellular solution) with one containing the IVM-bdpy probe at a concentration of 500 nM. FRAP images were taken at a frequency of 0.5 Hz for 10 min after a 30 min equilibration period in 500 nM IVM-bdpy.

αβ (1:1) GluClRs = αβ (1:1) GluClRs (Haemonchus contortus, UniProt O46124+P91730); test: IPSC recording in HEK293-neuron heteroculture, αβ (1:1) GluClRs; assay type: cell-based, H. contortus; settings: 5 nM IVM
Protocol: as §1
Primary neuronal cultures were prepared from cortices of E18 rat embryos, (University of Queensland Biological Services), which were triturated and plated at 100,000 cells per 18-mm poly-D-lysine-coated coverslip in DMEM with 10% fetal bovine serum. After 24 h the entire medium was replaced with Neurobasal medium that included 2% B27 and 1% GlutaMAX supplements. After one week half of this medium was replaced and the neurons were allowed to grow in vitro for 3–5 weeks before introducing the transfected HEK293 cells. Recordings of synaptic currents were done in whole-cell configuration at ‐70 mV using an Axopatch 200B amplifier (Molecular Devices), filtered at 5 kHz and digitized at 20 kHz using Clampex (pClamp 10 suite, Molecular Devices) via a Digidata 1440A digitizer.

αβ (1:1) GluClRs, sequence (P91730 19-432): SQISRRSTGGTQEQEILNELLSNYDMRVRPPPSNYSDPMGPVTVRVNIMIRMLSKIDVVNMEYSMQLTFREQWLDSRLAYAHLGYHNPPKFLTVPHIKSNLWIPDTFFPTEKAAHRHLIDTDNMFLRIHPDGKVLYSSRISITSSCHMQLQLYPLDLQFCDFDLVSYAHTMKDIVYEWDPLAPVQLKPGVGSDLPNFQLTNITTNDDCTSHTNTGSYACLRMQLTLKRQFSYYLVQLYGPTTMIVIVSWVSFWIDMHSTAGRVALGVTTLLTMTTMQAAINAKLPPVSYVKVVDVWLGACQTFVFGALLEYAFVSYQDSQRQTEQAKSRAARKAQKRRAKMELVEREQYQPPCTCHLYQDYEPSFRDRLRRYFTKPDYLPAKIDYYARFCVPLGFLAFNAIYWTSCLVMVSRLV
αβ (1:1) GluClRs, sequence (O46124 entry or part of it): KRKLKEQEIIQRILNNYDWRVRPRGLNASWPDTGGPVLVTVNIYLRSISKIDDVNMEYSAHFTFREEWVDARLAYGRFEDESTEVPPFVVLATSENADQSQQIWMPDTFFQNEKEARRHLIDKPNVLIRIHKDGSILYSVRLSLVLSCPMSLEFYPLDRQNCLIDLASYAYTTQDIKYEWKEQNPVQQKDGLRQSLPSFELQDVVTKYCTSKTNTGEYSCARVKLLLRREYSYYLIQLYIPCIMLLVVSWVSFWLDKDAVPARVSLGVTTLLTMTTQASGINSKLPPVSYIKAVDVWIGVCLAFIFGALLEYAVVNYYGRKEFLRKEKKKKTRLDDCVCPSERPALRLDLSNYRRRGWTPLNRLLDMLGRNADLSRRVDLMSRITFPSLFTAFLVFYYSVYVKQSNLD
αβ (1:50) GluClRs, sequence (O46124 entry or part of it): as above
αβ (1:50) GluClRs, sequence (P91730 19-432): as the sequence (P91730 19-432) above

CC[C@H](C)[C@H]1O[C@]2(CC[C@@H]1C)C[C@@H]1C[C@@H](C/C=C(\C)[C@@H](O[C@H]3C[C@H](OC)[C@@H](O[C@H]4C[C@H](OC)[C@@H](O)[C@H](C)O4)[C@H](C)O3)[C@@H](C)/C=C/C=C3\CO[C@@H]4[C@H](O)C(C)=C[C@@H](C(=O)O1)[C@]34O)O2 [IVM, Ivermectin]
differential efficacy between α and αβ (1:50) GluClRs (αβ (1:50) GluClRs; 30 nM, α versus αβ (1:50)): maintained
EC50 (αβ (1:50) GluClRs; EC50, oocytes, cDNA injection ratio α:β 1:50, −40 mV): 0.141 ± 0.011 µM
Hill co-efficient (αβ (1:50) GluClRs; oocytes, α:β 1:50, −40 mV): 1.6 ± 0.1
Emax (αβ (1:50) GluClRs; read-out: maximal response, % of saturating glutamate response): 33%
lateral diffusion rate [1]: 0.2 μms^−1
IPSC activation (10–90% rise) time (αβ (1:1) GluClRs; 15 minutes): 10 ± 1 ms
peak IPSC amplitude (αβ (1:1) GluClRs; 15 minutes): 124 ± 18 pA
IPSC decay time constant (αβ (1:1) GluClRs; 15 minutes after start of application, −70 mV): 72 ± 4 ms
